Measurements taken from US20240350447A1, “DELIVERY METHODS FOR TREATING BRAIN AND CENTRAL NERVOUS SYSTEM DISEASES” (JENIVISION INC., priority 2021, published 2024).
Read-outs that look alike come from different tables or passages of the source.

Assays:
[1] = Baseline endogenous levels of DHA, DHA-EE and JV-DE1; type: in vivo; conditions: undosed Bama minipigs
Description: Endogenous levels were measured in the plasma, cerebrospinal fluid, ocular tissues (retina, optic nerve, ocular muscles), and brain. The endogenous levels DHA are not attributable to NIODP administration of DHA, DHA-EE, or JV-DE1. The baseline data collected in Table 4 was taken from the same lot of pigs, from the same vendor, as the information collected in Tables 5-7.

[2] = Biodistribution of DHA after periorbital skin (NIODP) application to one eye; type: in vivo, Cynomolgus monkeys; conditions: for DHA in cornea / DHA in upper eyelid / DHA in vitreous humor / concentration at 0 h: 0 h (baseline); for DHA in cornea / DHA in upper eyelid / DHA in vitreous humor / Retina/Upper eyelid ratio of DHA / concentration at 0.5 h / concentration at 3 h / concentration at 6 h / concentration at 24 h / concentration at 0 h: 6755.1 μg to OS via NIODP; for concentration at 0.5 h / concentration at 3 h / concentration at 6 h / concentration at 24 h / concentration at 0 h / Kp: cynomolgus monkey
Description: An experiment was performed to determine the biodisposition of DHA following topical application to the periorbital skin that surrounds the anterior portion of the globe was performed.
Docosahexaenoic acid (DHA) is an omega-3 fatty acid and an essential component for neuronal formation, function and protection. […] […] High concentrations of DHA (from 35.6 to 97.3 μg/g) were detected in the undoes retina, which is similar to the dosed retina.
Moreover, compared to the baseline retina/plasma ratio of 7-fold, and with no significant changes in plasma, the retina/plasma ratios of DHA in the undosed eye were at least 30-fold at each post dose timepoint, signifying that the undosed retina uptake of DHA was not from blood circulation.

CC/C=C\C/C=C\C/C=C\C/C=C\C/C=C\C/C=C\CCC(=O)O [DHA, docosahexaenoic acid]
Baseline endogenous concentration in brain [1]: 20758 ng/g
Baseline endogenous concentration in cerebrospinal fluid [1]: BLQ
Baseline endogenous concentration in eye tissue homogenate including (Retina, optic nerve, ocular muscle) [1]: 2643.5 ng/g
Baseline endogenous concentration in plasma [1]: 122.1 ng/mL
DHA in the undosed right cornea and vitreous humor ([2]; DHA to OS via NIODP): No DHA was detectable
DHA in cornea ([2]; OD (undosed eye)): BLQ
DHA in upper eyelid ([2]; OD (undosed eye)): BLQ
DHA in vitreous humor ([2]; OD (undosed eye)): BLQ
Retina/Upper eyelid ratio of DHA ([2]; OD (undosed eye), 0.5 h): 172%
Retina/Upper eyelid ratio of DHA ([2]; OD (undosed eye), 3 h): 1678%
Retina/Upper eyelid ratio of DHA ([2]; OD (undosed eye), 6 h): 1057%
Retina/Upper eyelid ratio of DHA ([2]; OD (undosed eye), 24 h): 672%
DHA in cornea ([2]; OS (dosed eye)): BLQ
DHA in upper eyelid ([2]; OS (dosed eye)): BLQ
DHA in vitreous humor ([2]; OS (dosed eye)): BLQ
Retina/Upper eyelid ratio of DHA ([2]; OS (dosed eye), 0.5 h): 29%
Retina/Upper eyelid ratio of DHA ([2]; OS (dosed eye), 3 h): 16%
Retina/Upper eyelid ratio of DHA ([2]; OS (dosed eye), 6 h): 735%
Retina/Upper eyelid ratio of DHA ([2]; OS (dosed eye), 24 h): 292%
concentration at 0.5 h ([2]; cornea of the undosed right eye (OD), topical, OD (undosed eye), 0.5 h, read-out: DHA in cornea): 0 ng/g
concentration at 3 h ([2]; cornea of the undosed right eye (OD), topical, OD (undosed eye), 3 h, read-out: DHA in cornea): 0 ng/g
concentration at 6 h ([2]; cornea of the undosed right eye (OD), topical, OD (undosed eye), 6 h, read-out: DHA in cornea): 0 ng/g
concentration at 24 h ([2]; cornea of the undosed right eye (OD), topical, OD (undosed eye), 24 h, read-out: DHA in cornea): 0 ng/g
concentration at 0 h ([2]; plasma, topical, read-out: DHA in plasma): 2400 ng/mL
concentration at 0.5 h ([2]; plasma, topical, 0.5 h post dose, read-out: DHA in plasma): 2200 ng/mL
concentration at 3 h ([2]; plasma, topical, 3 h post dose, read-out: DHA in plasma): 3100 ng/mL
concentration at 6 h ([2]; plasma, topical, 6 h post dose, read-out: DHA in plasma): 2100 ng/mL
concentration at 24 h ([2]; plasma, topical, 24 h post dose, read-out: DHA in plasma): 1200 ng/mL
Kp ([2]; retina / plasma, baseline (before dosing), read-out: Baseline retina/plasma ratio of DHA): 7
concentration at 0 h ([2]; retina of the dosed left eye (OS), topical, OS (dosed eye), read-out: DHA in retina): 16500 ng/g
Kp ([2]; retina of the undosed eye / plasma, topical, 6775.1 μg/eye, each post dose timepoint, DHA to OS via NIODP, read-out: Retina/plasma ratio of DHA in the undosed eye): ≥ 30
concentration at 0 h ([2]; retina of the undosed right eye (OD), topical, OD (undosed eye), read-out: DHA in retina): 16500 ng/g
concentration at 0.5 h ([2]; retina of the undosed right eye (OD), topical, OD (undosed eye), 0.5 h, read-out: DHA in retina): 70800 ng/g
concentration at 3 h ([2]; retina of the undosed right eye (OD), topical, OD (undosed eye), 3 h, read-out: DHA in retina): 97300 ng/g
concentration at 6 h ([2]; retina of the undosed right eye (OD), topical, OD (undosed eye), 6 h, read-out: DHA in retina): 78200 ng/g
concentration at 24 h ([2]; retina of the undosed right eye (OD), topical, OD (undosed eye), 24 h, read-out: DHA in retina): 35600 ng/g
concentration at 0.5 h ([2]; upper eyelid of the undosed right eye (OD), topical, OD (undosed eye), 0.5 h, read-out: DHA in upper eyelid): 41100 ng/g
concentration at 3 h ([2]; upper eyelid of the undosed right eye (OD), topical, OD (undosed eye), 3 h, read-out: DHA in upper eyelid): 5800 ng/g
concentration at 6 h ([2]; upper eyelid of the undosed right eye (OD), topical, OD (undosed eye), 6 h, read-out: DHA in upper eyelid): 7400 ng/g
concentration at 24 h ([2]; upper eyelid of the undosed right eye (OD), topical, OD (undosed eye), 24 h, read-out: DHA in upper eyelid): 5300 ng/g
concentration at 0.5 h ([2]; vitreous humor of the dosed left eye (OS), topical, OS (dosed eye), 0.5 h, read-out: DHA in vitreous humor): 0 ng/mL
concentration at 3 h ([2]; vitreous humor of the dosed left eye (OS), topical, OS (dosed eye), 3 h, read-out: DHA in vitreous humor): 0 ng/mL
concentration at 6 h ([2]; vitreous humor of the dosed left eye (OS), topical, OS (dosed eye), 6 h, read-out: DHA in vitreous humor): 0 ng/mL
concentration at 24 h ([2]; vitreous humor of the dosed left eye (OS), topical, OS (dosed eye), 24 h, read-out: DHA in vitreous humor): 0 ng/mL
concentration at 0.5 h ([2]; vitreous humor of the undosed right eye (OD), topical, OD (undosed eye), 0.5 h, read-out: DHA in vitreous humor): 0 ng/mL
concentration at 3 h ([2]; vitreous humor of the undosed right eye (OD), topical, OD (undosed eye), 3 h, read-out: DHA in vitreous humor): 0 ng/mL
concentration at 6 h ([2]; vitreous humor of the undosed right eye (OD), topical, OD (undosed eye), 6 h, read-out: DHA in vitreous humor): 0 ng/mL
